One assay deals with T1, human GCGR (Homo sapiens, UniProt P47871).
T1 construct: expressed in transfected cells; assay-ready frozen cells grown with Blasticidin and Hygromycin
The assay is described as follows: cAMP activity assay, cells expressing human GCGR (HitHunter cAMP XS). Format: cell-based. The conditions noted are these: ratio of human GCGR EC50 to human GLP1R EC50. Here is the method: (§1) Activity of the peptides at the Glucagon receptor (GCGR) and GLP-1 receptor (GLP1R) was measured in a cAMP activity assay.
(§2) Peptides were dissolved in 100% DMSO and serially diluted to generate 10 point titrations. The peptide solutions were then transferred into 384-well assay plates (150 nL/well).
(§3) Assay ready frozen cells expressing human GLP1R or human GCGR were suspended in growth media consisting of DMEM medium (GIBCO), 10% FBS (GIBCO), 1x NEAA(GIBCO), 1x P/S (GIBCO), 10ug/ml Blasticidin (GIBCO) and 200 µg/mL Hygromycin (GIBCO). Cells were then diluted in assay buffer consisting of PBS (GIBCO), 7.5% BSA (Perkin Elmer), 100 µM RO 20-1724 (Sigma), with or without 20% human serum (MP Biomedical). The cell suspensions (15 µL) were then added to the assay plates containing the peptide solutions (30,000 cells/well for human GCGR; 10.000 cells/well for human GLP1R). The cells were incubated for 1 hour at room temperature in the dark. Production of cAMP was determined using HitHunter™ cAMPXS kits (DiscoverX) following manufacturer protocol. The plates were incubated for overnight at room temperature in the dark. Luminescence was measured using an EnVision Multilabel plate reader (Perkin Elmer). Native GLP-1 and Glucagon (Bachem) are used as control peptides. EC50 values were calculated using uses a 4 parameter logistic fit based on the Levenberg-Marquardt algorithm.

For a further assay, the target named is T2, human GLP1R (Homo sapiens, UniProt P43220).
T2 construct: expressed in transfected cells; assay-ready frozen cells grown with Blasticidin and Hygromycin
The assay is described as follows: cAMP activity assay, cells expressing human GLP1R (HitHunter cAMP XS). Format: cell-based. The conditions noted are these: cAMP production, 1 hour at room temperature; assay buffer with or without 20% human serum (not stated which). The procedure:
as §1, §2, §3
For orientation: Changes in cAMP serve as a functional read-out for many G protein-coupled receptors.

The target of assay [1] is human Glucagon receptor (GCGR) (human, UniProt P47871). The assay is described as follows: cell-based or functional assay.
Assay [2] addresses human GLP-1 receptor (GLP1R) (human, UniProt P43220). Nature of the assay: cell-based or functional assay.

Numbered stars: 1 amine (or outer) side, 2 acyl side, 3 side chain; on linkers, the order of the positions; unused ones are H or OH. Bridge positions count the residues as written; N and C are the ends. Square brackets hold non-standard residues; d marks the D form. Side chains are listed from the residue outwards. Ends that are not written are not given here. Peptide text beside a SMILES is read from it. * marks the point of attachment. R6me = (R)-2-amino-2-methyloct-7-enoic acid, C=CCCCC[C@@](C)(N[*:1])C(=O)[*:2]; Nle(6-ylidene) = O=C([C@H](CCCC=[*:3])N[*:1])[*:2]; S7 = C[C@@](CCCCCC=[*:3])(N[*:1])C(=O)[*:2]; γGlu = O=C(O)[C@H](CCC(=O)[*:2])N[*:1]; Palmitoyl = CCCCCCCCCCCCCCCC(=O)*; S5 = C=CCCC[C@](C)(N)C(=O)O; Aib = CC(C)(N)C(=O)O

For orientation: EC50 means the concentration needed to bring the measured effect to its halfway point. A low value points to higher potency in that assay.

T1 sequence (P47871 26-477): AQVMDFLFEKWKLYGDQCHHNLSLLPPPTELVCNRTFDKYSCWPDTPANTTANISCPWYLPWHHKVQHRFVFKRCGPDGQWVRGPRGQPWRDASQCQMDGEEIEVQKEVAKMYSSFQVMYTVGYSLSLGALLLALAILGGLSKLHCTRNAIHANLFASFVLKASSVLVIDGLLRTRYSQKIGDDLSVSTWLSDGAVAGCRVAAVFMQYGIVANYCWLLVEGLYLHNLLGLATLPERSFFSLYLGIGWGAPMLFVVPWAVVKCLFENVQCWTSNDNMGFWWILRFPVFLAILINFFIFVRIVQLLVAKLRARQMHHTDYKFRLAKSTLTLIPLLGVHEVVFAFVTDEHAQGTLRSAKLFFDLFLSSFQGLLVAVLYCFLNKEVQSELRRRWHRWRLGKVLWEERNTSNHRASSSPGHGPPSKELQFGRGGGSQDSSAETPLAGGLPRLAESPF
T2 sequence (P43220 24-463): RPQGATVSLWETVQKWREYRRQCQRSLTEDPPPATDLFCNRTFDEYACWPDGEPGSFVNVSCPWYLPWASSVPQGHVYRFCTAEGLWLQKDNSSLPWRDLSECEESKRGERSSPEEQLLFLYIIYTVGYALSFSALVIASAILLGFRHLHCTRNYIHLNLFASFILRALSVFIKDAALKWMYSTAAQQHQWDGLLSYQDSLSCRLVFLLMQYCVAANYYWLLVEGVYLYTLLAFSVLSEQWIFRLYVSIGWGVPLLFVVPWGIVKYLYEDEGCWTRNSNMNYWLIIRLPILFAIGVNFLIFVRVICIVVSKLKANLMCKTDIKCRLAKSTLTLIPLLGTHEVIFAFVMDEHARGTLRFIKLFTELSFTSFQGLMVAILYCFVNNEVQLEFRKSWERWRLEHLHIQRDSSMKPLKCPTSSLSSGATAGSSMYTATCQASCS

With `CCCCCCCCCCCCCCCC(=O)N[C@@H](CCC(=O)N[C@@H](CCC(=O)NCCCC[C@H](NC(=O)[C@H](CC(=O)O)NC(=O)[C@H](CO)NC(=O)[C@@H](NC(=O)[C@H](Cc1ccccc1)NC(=O)[C@@H](NC(=O)CNC(=O)[C@H](CCC(N)=O)NC(=O)C(C)(C)NC(=O)[C@@H](N)Cc1c[nH]cn1)[C@@H](C)O)[C@@H](C)O)C(=O)N[C@@H](CO)C(=O)N[C@@H](CCCCN)C(=O)N[C@@H](Cc1ccc(O)cc1)C(=O)N[C@@H](CC(C)C)C(=O)N[C@@H](CC(=O)O)C(=O)NC(C)(C)C(=O)N[C@@H](CCCNC(=N)N)C(=O)N[C@@H](C)C(=O)N[C@@H](C)C(=O)N[C@@H](CCC(N)=O)C(=O)N[C@@H](CC(=O)O)C(=O)N[C@@H](Cc1ccccc1)C(=O)N[C@H](C(=O)N[C@@]1(C)CCCC=CCCC[C@@](C)(C(=O)N[C@H](C(=O)N[C@@H](CCCCN)C(=O)N[C@@H](CCC(N)=O)C(=O)O)[C@@H](C)O)NC(=O)[C@H](CCSC)NC(=O)[C@H](CC(C)C)NC(=O)[C@H](Cc2c[nH]c3ccccc23)NC1=O)C(C)C)C(=O)O)C(=O)O` [compound 14] (H-H[Aib]QGTFTSDK([γGlu-γGlu-Palmitoyl])SKYLD[Aib]RAAQDFV[S5]WLM[S5]TKQ-OH; staple 24-28), the “hGCGR/hGLP1R (hTone)” value on human GCGR is 35.14. The molecule also came in with an EC50 on human GLP1R of 0.13 nM.
As for `CC(C)C[C@@H]1NC(=O)[C@H](Cc2c[nH]c3ccccc23)NC(=O)[C@@H](NC(=O)[C@@H](NC(=O)[C@H](Cc2ccccc2)NC(=O)[C@H](CC(=O)O)NC(=O)[C@H](CCC(N)=O)NC(=O)[C@H](C)NC(=O)[C@H](C)NC(=O)[C@H](CCCNC(=N)N)NC(=O)C(C)(C)NC(=O)[C@H](CC(=O)O)NC(=O)[C@H](CC(C)C)NC(=O)[C@H](Cc2ccc(O)cc2)NC(=O)[C@H](CCCCN)NC(=O)[C@H](CO)NC(=O)[C@H](CCCCN)NC(=O)[C@H](CC(=O)O)NC(=O)[C@H](CO)NC(=O)[C@@H](NC(=O)[C@H](Cc2ccccc2)NC(=O)[C@@H](NC(=O)CNC(=O)[C@H](CCC(N)=O)NC(=O)C(C)(C)NC(=O)[C@@H](N)Cc2c[nH]cn2)[C@@H](C)O)[C@@H](C)O)C(C)C)CCCC=CCCC[C@@H](C(=O)N[C@H](C(=O)N[C@@H](CCCCN)C(=O)N[C@@H](CCC(N)=O)C(=O)O)[C@@H](C)O)NC(=O)[C@H](CC(C)C)NC1=O` [compound 18] (H-H[Aib]QGTFTSDKSKYLD[Aib]RAAQDFV[Nle(6-ylidene)]WLL[Nle(6-ylidene)]TKQ-OH; staple 24-28), the “hGCGR/hGLP1R (hTone)” value at human GCGR was 33.1. The EC50 at human GLP1R was 0.13 nM.
On to H[dS]QGTFTSDKSKYLDE[R6me]AAQDFV[S7]WLLDT-NH2 (staple 17-24) [peptide of SEQ ID NO: 9 (TP398)], for which, in assay [1], the “GCGR EC50 human (cAMP activity assay)” value turned out to be 5 nM. Besides, the “GLP1R EC50 human (cAMP activity assay)” value in assay [2] was 5 nM.
